# Assay results published in patent publication EP0532512B1, “USE OF PLATELET ACTIVATING FACTOR ANTAGONISTS AS ANTI-PRURITIC AGENTS” (ALLERGAN, INC., priority 1990, dated 1991).
# Where a SMILES comes first, the peptide text is derived from it.
# Key:
# PAF induced pruritus = assay: Attenuation of PAF induced pruritus by 30 minute topical pretreatment (conjunctival itch-scratch model); type: in vivo, guinea-pig; settings: for scratch episodes, TREATED GROUP (mean ± SEM): 30 minute topical pretreatment, n=12
# Description: (§1) A more complete appreciation of the invention may be obtained from the following Examples. As a means of providing an atraumatic experimental model of itching, the conjunctiva was used as a convenient tissue site. Pruritogenic agents may be administered to the conjunctiva without the need to traumatize the tissue by injection or scarification. The itch sensation is elicited peripherically by local, atraumatic application of the pruritogen. Of equal importance is the ability of this model to identify locally acting anti-pruritic agents without concerns regarding local tissue trauma or, in the case of systemically administered agents, sedation.
# (§2) The pruritogenic activity of numerous and structurally diverse autocoids was examined as follows. A 20 µl drop of a solution of the particular autocoid under evaluation was topically administered to one albino guinea-pig eye, the contralateral eye received 20 µl of vehicle as a control. For PAF studies, the R=15 version of formula I was used and was taken up in 0.5% ultrapure bovine serum albumin. The guinea pig was then replaced in its cage and the number of scratching episodes was recorded over the 15 subsequent minute period. The retention of the experimental animal in familiar surroundings is an important factor in experimental design. Scratching, which is the typical mammalian behavioral response to the itch sensation, provides an indication of the intensity of the perceived itch sensation and can be quantified by recording the frequency at which itch-scratch episodes occur per unit time: 15 minutes in the case of these examples.
# The ability of a 30 minute topical pretreatment with selected PAF antagonists to attenuate PAF induced pruritus is shown in Table 2.
# [1] = tested on: experimental allergic itching; assay: Experimental allergic itching: conjunctival antigen (chicken ovalbumin) challenge in presensitized animals after pretreatment; type: in vivo; settings: n=8-10
# Description: as §1
# In addition to pharmacological studies on pruritogenic autocoids, the conjunctiva may be used as a convenient site for modelling diseases where itching is a major symptom. In animals presensitized to a particular antigen, subsequent topical challenge with that antigen results in conjunctival itching. This may be regarded as an experimental model of itching which has general relevance to clinically encountered pruritus. In the studies described herein, chicken ovalbumin was used as an antigenic substance and the ability of PAF antagonist pretreatment to block the itching response was examined (Table 3).
# albino guinea-pig eye = assay: Pruritogenic activity of autocoids: topical drop to the eye (conjunctiva), scratching episodes counted over 15 minutes; type: in vivo; settings: for NO OF SCRATCH EPISODES (X̄ ± SEM): 15 minutes, n=12; for pruritogenic activity (in words): summary of Table 1
# Description: as §1, §2
# [2] = dose 10 μg, 20 µl drop topically to one eye
# [3] = dose 100 μg, 20 µl drop topically to one eye
molecule,measurement,setting,value
CCCCCCCCCCCCCCCCCCNC(=O)OCC(COC(=O)N(Cc1cccc[n+]1CC)C(C)=O)OC (stereo not shown) [Compound of formula (II)],"scratch episodes, TREATED GROUP (mean ± SEM)","PAF induced pruritus; 10 mg/ml, vs 1 µg PAF",2.67 ± 0.68
same,"scratch episodes, TREATED GROUP (mean ± SEM)","PAF induced pruritus; 10 mg/ml, vs 10 µg PAF",6.50 ± 1.09
same,"scratch episodes, TREATED GROUP",[1]; 1 mg/ml pretreatment vs 100 µG antigen,7.62 ± 0.96
"CC(=O)O [10mM ACETIC ACID, ACETIC ACID]",NO OF SCRATCH EPISODES (X̄ ± SEM),"albino guinea-pig eye; pain producing stimulus solution, no dose printed (--)",0.42 ± 0.19
same,pruritogenic activity (in words),albino guinea-pig eye,virtual absence of an itch-scratch response
CCCCC/C=C\C[C@@H](O)/C=C/C=C/C=C\[C@@H](O)CCCC(=O)O [LEUKOTRIENE B4],NO OF SCRATCH EPISODES (X̄ ± SEM),albino guinea-pig eye; [2],0.42 ± 0.23
"CCCCCCCCCCCCCCCCOCC(COP(=O)([O-])OCC[N+](C)(C)C)OC(C)=O (stereo not shown) [PAF, 1-O-alkyl-2-acetyl-sn-glycero-3-phosphocholine]",pruritogenic activity (in words),albino guinea-pig eye,most potent pruritogenic agent
CC(C)[C@H](N)C(=O)NCC(=O)N[C@@H](CC(=O)O)C(=O)N[C@@H](CCC(=O)O)C(=O)O [L-valylglycyl-L-aspartyl-L-glutamic acid] (H-VGDE-OH),NO OF SCRATCH EPISODES (X̄ ± SEM),albino guinea-pig eye; [3],0.92 ± 0.26
CCCCC/C=C\CC(O)/C=C/C=C\C/C=C\CCCC(=O)O (stereo not shown) [12-Hydroxytetraemoic Acid],NO OF SCRATCH EPISODES (X̄ ± SEM),albino guinea-pig eye; [2],0.08 ± 0.08
CCCCC/C=C\C\C=C/C=C/C=C/[C@@H](SC[C@H](NC(=O)CC[C@H](N)C(=O)O)C(=O)NCC(=O)O)[C@@H](O)CCCC(=O)O [LEUKOTRIENE C4],NO OF SCRATCH EPISODES (X̄ ± SEM),albino guinea-pig eye; [2],0.58 ± 0.36
CCCCC/C=C\C/C=C\C/C=C\C=C\C(O)CCCC(=O)O (stereo not shown) [5-Hydroxytetraemoic Acid],NO OF SCRATCH EPISODES (X̄ ± SEM),albino guinea-pig eye; [2],0.33 ± 0.22
Cc1nnc2n1-c1sc(CCC(=O)N3CCOCC3)cc1C(c1ccccc1Cl)=NC2 [Compound of formula (IV)],"scratch episodes, TREATED GROUP (mean ± SEM)","PAF induced pruritus; 5 mg/ml, vs 1 µg PAF",0.33 ± 0.19
same,"scratch episodes, TREATED GROUP (mean ± SEM)","PAF induced pruritus; 5 mg/ml, vs 10 µg PAF",5.25 ± 0.98
same,"scratch episodes, TREATED GROUP",[1]; 10 mg/ml pretreatment vs 10 µG antigen,5.00 ± 1.10
CCCCCCCCCCCCCCCCOC[C@@H](O)COP(=O)([O-])OCC[N+](C)(C)C [LYSO-PAF],NO OF SCRATCH EPISODES (X̄ ± SEM),"albino guinea-pig eye; dose 1 μg, 20 µl drop topically to one eye",0.92 ± 0.26
same,NO OF SCRATCH EPISODES (X̄ ± SEM),albino guinea-pig eye; [2],2.67 ± 0.73
same,NO OF SCRATCH EPISODES (X̄ ± SEM),albino guinea-pig eye; [3],13.0 ± 1.58
same,pruritogenic activity (in words),albino guinea-pig eye,relatively weak activity
C[C@H](N)C(=O)NCC(=O)N[C@@H](CO)C(=O)N[C@@H](CCC(=O)O)C(=O)O [L-alanylglycyl-L-seryl-L-glutamic acid] (H-AGSE-OH),NO OF SCRATCH EPISODES (X̄ ± SEM),"albino guinea-pig eye; dose 1000 μg, 20 µl drop topically to one eye",1.42 ± 0.47
"Bradykinin (RPPGFSPFR; Bradykinin; UniProt P01042 381-389, looked up)",NO OF SCRATCH EPISODES (X̄ ± SEM),albino guinea-pig eye; [2],0.50 ± 0.23
same,NO OF SCRATCH EPISODES (X̄ ± SEM),albino guinea-pig eye; [3],4.00 ± 0.90
COc1ccc(CN(CCN(C)C)c2ccccn2)cc1 [Pyrilamine],"scratch episodes, TREATED GROUP (mean ± SEM)","PAF induced pruritus; 0.1 mg/ml, vs 1 µg PAF",4.17 ± 0.91
same,"scratch episodes, TREATED GROUP (mean ± SEM)","PAF induced pruritus; 0.1 mg/ml, vs 10 µg PAF",14.25 ± 1.75
same,block of PAF induced pruritus (in words),PAF induced pruritus; summary of Table 2,not
CCCCCC(O)/C=C/C=C\C/C=C\C/C=C\CCCC(=O)O (stereo not shown) [15-Hydroxytetraemoic Acid],NO OF SCRATCH EPISODES (X̄ ± SEM),albino guinea-pig eye; [2],0.08 ± 0.08
"CC1C(=O)OC2C(O)C34C5CC(C(C)(C)C)C36C(OC(=O)C6O)OC4(C(=O)O5)C12O (stereo not shown) [Compound of formula (III), Ginkgolide B]","scratch episodes, TREATED GROUP (mean ± SEM)","PAF induced pruritus; 10 mg/ml, vs 10 µg PAF",8.42 ± 1.37
same,"scratch episodes, TREATED GROUP",[1]; 10 mg/ml pretreatment vs 100 µG antigen,6.87 ± 1.61
CCCCC[C@H](O)/C=C/[C@@H]1[C@@H](C/C=C\CCCC(=O)O)[C@@H](O)C[C@H]1O [PROSTAGLANDIN F2α],NO OF SCRATCH EPISODES (X̄ ± SEM),albino guinea-pig eye; [3],1.75 ± 0.37
